Assay results reported in patent US20200206198A1, “CFTR CHANNEL ACTIVATOR FOR USE IN THE TREATMENT AND/OR PREVENTION OF GLUTEN SENSITIVITY CONDITIONS” (priority 2017, published 2020).

System: Caco-2 cells
Test: Innate immune activation in Caco-2 cells (NLRP3, caspase-1, IL-15, NF-κB p65)
Type: cell-based, human
Experimental: Human colon adenocarcinoma-derived Caco-2 and T84 cells were obtained from the ATCC. Cells were maintained in T25 flask in Modified Eagle Medium (MEM) for Caco-2, or Ham's F12+DMEM (1:1) for T84, supplemented with 10% fetal bovine serum (FBS), 2 mM Glutamine+1% Non Essential Amino Acids (NEAA) and the antibiotics penicillin\streptomycin (100 units/ml) (all reagents from Lonza) (Luciani, A., et al. 2010. Cells were grown in Transwells (Corning, 3470 or 3460) under the normal condition (Luciani, A., et al. 2012). Briefly, 8×10^4 or 5×10^5 cells were seeded in 6.5-mm diameter or 12-mm diameter, respectively, and grown until the RT reached 800 to 1,200 Ω·cm2. Transwells with a pore size of 0.4 μm were used. Medium in both the apical and basolateral chambers was changed every other day. Cells were treated with 20 μg/ml of either α-gliadin peptide P31-43 or […]-69 or scrambled PGAV or modified P31-43 either biotin-tagged or not, for different time point (from 1 h short challenge up to 24 h). Cells were also treated with 50 or 100 μg/ml of […]-68 or PGAV peptides for 3 h. Caco-2 or T84 cells were also treated with: CFTR potentiators VX-770 (10 μM) or VX-532 (20 μM) (Selleck chemicals) or Genistein (10 μM) (Sigma-Aldrich) or in presence or absence of CFTR inhibitor172 (CFTRinh172, 20 μM) or 3-methyl-adenine (3-MA, 20 μM) (Calbiochem), Z-DON (20 nM, Zedira) or BAPTA-AM (10 μM, Calbiochem). The whole lysate or membrane fraction proteins of cell lines and mice intestine homogenates were obtained from treated and untreated cells or mice as described. The equal amount of protein were resolved by SDS-PAGE gel and blotted with antibodies against: SQSTM1, (Sigma Aldrich, 108k4767) 1:1000, PPARγ (Santa Cruz Biotechnology, sc7273) 1:500, BECN1 (Abcam, ab58878) 1:1000, CFTR clone M3A7 (Abcam, ab4067) 1:500, phospho-ERK1/2 (php42/44, Cell Signaling Technology, #91101) 1:1000, UVRAG (Santa Cruz Biotechnology sc8215) 1:1000, NHERF-1 (BD, 611161) 1:1000, EZRIN (BD, 610603) 1:1000, hVps34 (SigmaV9764) 1:300, biotin (Abcam, ab1227) 1:2000, PKAr2a (BD, 610625) 1:500, Ubiquitin (Cell Signaling clone P4D1, #3936) 1:1000, CHIP (Calbiochem PC711) 1:500, Caspase-1 p10 (M-20) (Santa Cruz Biotechnology, sc-514) 1:200, NLRP3 (Abcam, ab4207), 1:500, IDO1 (monoclonal; cv152) 1:1000^[80], used as primary antibodies. Normalization was performed by probing the membrane with anti-β-actin (Cell Signaling, #4970) 1:1000, anti-Gapdh (Sigma-Aldrich, G8795) 1:1000 and anti-flottilin (Abcam ab15148) 1:1000 antibodies. Immunoprecipitations of endogenous proteins were performed on 500 μg of lysates from Caco-2 cells. The proteins were incubated for 12-18 h at 4° C. with 10 ug\ml of specific antibody followed by the addition of Protein A/G-agarose beads for 4 h at 4° C. The beads were then washed three times with lysis buffer and Laemmli's sample buffer was added to the samples. The membranes were then blotted with: CFTR clone CF3 (Abcam, ab2784) 1:1000, TG2 (clone CUB7402; NeoMarkers) 1:1000, CHIP (Calbiochem PC711) 1:500, Ubiquitin (Cell Signaling clone P4D1 3936), isopeptide (Abcam 422) 1:1000, PKAR2 (BD 610625) 1:500. For cytoplasmic and nuclear extracts human colorectal carcinoma Caco-2 cells were harvested, washed in cold PBS twice, and centrifuged at 6000 rpm for 5 min in cold room to collect pellets. […] The protein concentrations were measured by Bradford protein assay (Protein Reagent, Bio-Rad). […]

Compound	effect on P31-43-induced NF-κB p65 nuclear translocation (Caco-2 cells)	effect on P31-43-induced NLRP3 expression (Caco-2 cells)	effect on P31-43-induced caspase-1 cleavage (Caco-2 cells)	effect on P31-43-induced production of IL-15 (Caco-2 cells, ELISA, p<0.001)	NF-κB p65 translocation into the nucleus (Caco-2 cells after incubation with peptide)
CC(C)(C)c1cc(C(C)(C)C)c(NC(=O)c2c[nH]c3ccccc3c2=O)cc1O [VX-770, N-(2,4-di-tert-butyl-5-hydroxyphenyl)-4-oxo-1,4-dihydroquinoline-3-carboxamide]	suppressed	prevented	prevented	prevented the P31-43-induced production of IL-15	–
α-gliadin peptide LGQQQPFPPQQPY (SEQ ID 1), induces an enterocyte stress response (P31-43 sequence of alpha-gliadin)	–	–	–	–	NF-κB p65 translocation into the nucleus was observed
